Laboratory results published in patent US11845748B2, “Bicyclic pyridine N-oxide derivatives useful as a factor XIa inhibitors” (Janssen Pharmaceutica NV, priority 2021, dated 2023).

Biological target: Factor XIa (Homo sapiens, UniProt P03951)
Assay: Factor XIa inhibition assay utilizing a fluorophore-quencher pair peptide substrate (FLINT)
Assay type: biochemical
Conditions: end point read at 30 min; 30 min preincubation; 5Fam-KLTRAETV-K5Tamra substrate; read-out: FXIa (EP) IC50
Excerpt: Biological Example 1: Factor XIa Inhibition Assay Utilizing a Fluorophore-Quencher Pair Peptide Substrate
A fluorescence intensity (FLINT) based assay was used to monitor inhibition of Factor XIa. The peptide substrate, 5Fam-KLTRAETV-K5Tamra (purchased from New England Peptide) was chosen based on the […]. Conversion of zymogen […]. The custom peptide used in this assay was based on the Arg146 cleavage site of FXI. The peptide substrate was designed with a fluorophore-quencher pair, where the fluorescence is quenched until FXIa cleaves the 8-mer peptide after the Arg residue. The substrate KM was fit to a substrate inhibition model whereby kcat=0.86 s^−1, KM=12.4 μM, Ki=61.6 μM with an enzymatic efficiency, and kcat/KM=69523 M^−1s^−1.
The Factor XIa FLINT assay was used with the following 5Fam-KLTRAETV-K5Tamra assay buffer: 50 mM Tris, pH 7.5, 100 mM NaCl, 5 mM CaCl2, 0.1 mg/mL BSA, 0.03% CHAPS. Assay buffer was prepared by mixing all ingredients fresh. 5Fam-KLTRAETV-K5Tamra peptide substrate was first prepared at 10 mM in 100% DMSO, then diluted to 3 mM in 100% DMSO. Assay buffer was then added directly to the 3 mM stock of substrate to prepare the 30 μM 2× working concentration (15 μM final concentration). The 2× Factor XIa stock solution was prepared by diluting 6.562 μM stock in 1× assay buffer for a 200 pM working stock solution (100 pM final concentration).
Test compound(s) were run in an 11-point, 3-fold serial dilution with a final top compound concentration of 100 nM. Final DMSO in assay was 2%. FXIa was preincubated with compound for 30-minutes and then substrate was added to initiate the reaction. The assay was run with either end point (EP) reads at 30 min or kinetic (KIN) reads at 5 min intervals over 30 minutes. The time course was linear using 100 μM FXIa greater than 30 minutes. More specifically, the assay was run as follows: • 100 nL of 0.01 mM test compound was dispensed into black 384-well non-binding Greiner BioOne 784900 plate for 0.1 μM final concentration; • 5 μL of 1× assay buffer was dispensed to column 24 (low control) and 5 μL 2× Factor XIa solution was dispensed to columns 1-23 (column 23 high control); • the plate was centrifuged with a “cover” plate at 500 rpm for 1 min the plate was pre-incubated for 30 minutes at room temperature with plate covered; • 5 μL of 2× 5Fam-KLTRAETV-K5Tamra peptide substrate was dispensed into the entire plate, columns 1-24; • the plate was centrifuged with a “cover” plate at 500 rpm for 1 min; • the plate was read monitoring fluorescence intensity on the BMG PHERAStar at room temperature, using fluorescence module 485 nm/520 nm.
Percent inhibition (IC50) curves were generated per compound tested, and data was analyzed using a 4-parameter logistic fit using GeneData Screener. The relative fluorescence unit (RFU) values were normalized to percent inhibition using the following equation: % inhibition=((HC−LC)−(compound−LC)/(HC−LC))*100 where LC—low control=mean signal of no Factor XIa or 100% inhibition of Factor XIa; HC—high control=mean signal of Factor XIa+5Fam-KLTRAETV-K5Tamra peptide substrate with DMSO only.
An 11-point dose response curve for the test compound(s) was generated using GENDATA to determine IC50 value based on the following equation: Y=Bottom+(Top−Bottom)/(1+10^((log IC50−X)*HillSlope))
where Y is the % inhibition in the presence of X inhibitor concentration, Top=high control=mean signal of Factor XIa+5Fam-KLTRAETV-K5Tamra peptide substrate with DMSO only; Bottom=low control−mean signal of no Factor XIa or 100% inhibition of Factor XIa; HillSlope—Hill coefficient; and IC50=concentration of compound with 50% inhibition in relation to top/high control. […]

Chain of Factor XIa (P03951 388-625 limits assumed): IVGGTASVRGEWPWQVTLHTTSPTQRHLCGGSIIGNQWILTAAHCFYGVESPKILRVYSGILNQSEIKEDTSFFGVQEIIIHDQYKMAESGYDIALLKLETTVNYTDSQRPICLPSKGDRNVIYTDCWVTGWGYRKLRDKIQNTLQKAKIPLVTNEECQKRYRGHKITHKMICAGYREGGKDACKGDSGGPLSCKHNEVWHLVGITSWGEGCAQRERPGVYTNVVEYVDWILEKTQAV
Chain of Factor XIa (P03951 19-387 partner limits assumed): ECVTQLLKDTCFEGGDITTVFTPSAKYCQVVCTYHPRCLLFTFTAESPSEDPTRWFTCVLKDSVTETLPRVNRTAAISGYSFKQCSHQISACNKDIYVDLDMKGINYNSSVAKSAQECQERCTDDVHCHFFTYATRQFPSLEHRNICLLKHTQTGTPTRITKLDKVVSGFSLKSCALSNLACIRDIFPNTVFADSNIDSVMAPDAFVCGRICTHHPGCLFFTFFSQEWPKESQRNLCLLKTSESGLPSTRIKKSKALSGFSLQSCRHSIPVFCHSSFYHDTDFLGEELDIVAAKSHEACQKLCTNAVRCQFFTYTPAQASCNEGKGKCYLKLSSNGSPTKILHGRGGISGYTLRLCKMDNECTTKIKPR

Row | Compound | IC50
1 | COC(=O)Nc1ccc(-c2cnn(C3CCc4cc(-c5cc(Cl)ccc5-n5cnnn5)c[n+]([O-])c43)c2)cc1 (racemic) [ID No. 7, 3-(5-Chloro-2-(1H-tetrazol-1-yl)phenyl)-7-(4-(4-((methoxycarbonyl)amino)phenyl)-1H-pyrazol-1-yl)-6,7-dihydro-5H-cyclopenta[b]pyridine 1-oxide] | 9 nM
2 | COC(=O)Nc1ccc(-c2cnn([C@@H]3CCc4cc(-c5c(-n6cnnn6)ccc(Cl)c5F)c[n+]([O-])c43)c2)cc1 [ID No. 9, (R)-3-(3-chloro-2-fluoro-6-(1H-tetrazol-1-yl)phenyl)-7-(4-(4-((methoxycarbonyl)amino)phenyl)-1H-pyrazol-1-yl)-6,7-dihydro-5H-cyclopenta[b]pyridine 1-oxide] | 3 nM
3 | Nc1ccc(-c2cnn(C3CCc4cc(-c5c(-n6cnnn6)ccc(Cl)c5F)c[n+]([O-])c43)c2)c(F)n1 (racemic) [ID No. 11, 7-(4-(6-Amino-2-fluoropyridin-3-yl)-1H-pyrazol-1-yl)-3-(3-chloro-2-fluoro-6-(1H-tetrazol-1-yl)phenyl)-6,7-dihydro-5H-cyclopenta[b]pyridine 1-oxide] | 11 nM
4 | Nc1ccc(-c2cnn(C3CCc4cc(-c5cc(Cl)ccc5-n5cnnn5)c[n+]([O-])c43)c2)c(F)n1 (racemic) [ID No. 10, 7-(4-(6-Amino-2-fluoropyridin-3-yl)-1H-pyrazol-1-yl)-3-(5-chloro-2-(1H-tetrazol-1-yl)phenyl)-6,7-dihydro-5H-cyclopenta[b]pyridine 1-oxide] | 27 nM
5 | COC(=O)Nc1ccc(-c2cn(C3CCc4cc(-c5c(-n6cnnn6)ccc(Cl)c5F)c[n+]([O-])c43)nc2C)cc1 (single isomer, unassigned) [ID No. 13, (R*)3-(3-Chloro-2-fluoro-6-(1H-tetrazol-1-yl)phenyl)-7-(4-(4-((methoxycarbonyl)amino)phenyl)-3-methyl-1H-pyrazol-1-yl)-6,7-dihydro-5H-cyclopenta[b]pyridine 1-oxide] | 837 nM
6 | O=C(O)c1ccc2nn(C3CCc4cc(-c5cc(Cl)ccc5-n5cnnn5)c[n+]([O-])c43)cc2c1 (stereo not shown) [ID No. 1, 7-(5-Carboxy-2H-indazol-2-yl)-3-(5-chloro-2-(1H-tetrazol-1-yl)phenyl)-6,7-dihydro-5H-cyclopenta[b]pyridine 1-oxide] | 2850 nM
7 | O=C(O)c1cccc(-c2ccn(C3CCc4cc(-c5cc(Cl)ccc5-n5cnnn5)c[n+]([O-])c43)n2)c1 (racemic) [ID No. 4, 7-(3-(3-Carboxyphenyl)-1H-pyrazol-1-yl)-3-(5-chloro-2-(1H-tetrazol-1-yl)phenyl)-6,7-dihydro-5H-cyclopenta[b]pyridine 1-oxide] | 1010 nM

Further compounds by falling IC50, results first:

Row | IC50 | Compound
8 | 320 nM | O=C(O)c1ccc(-c2ccn(C3CCc4cc(-c5cc(Cl)ccc5-n5cnnn5)c[n+]([O-])c43)n2)cc1 (racemic) [ID No. 3, 7-(3-(4-Carboxyphenyl)-1H-pyrazol-1-yl)-3-(5-chloro-2-(1H-tetrazol-1-yl)phenyl)-6,7-dihydro-5H-cyclopenta[b]pyridine 1-oxide]
9 | 220 nM | Nc1ccc(-c2cnn(C3CCc4cc(-c5cc(Cl)ccc5-n5cnnn5)c[n+]([O-])c43)c2)cc1 (racemic) [ID No. 12, 7-(4-(4-Aminophenyl)-1H-pyrazol-1-yl)-3-(5-chloro-2-(1H-tetrazol-1-yl)phenyl)-6,7-dihydro-5H-cyclopenta[b]pyridine 1-oxide]
10 | 16 nM | COC(=O)Nc1ccc(-c2cn(C3CCc4cc(-c5c(-n6cnnn6)ccc(Cl)c5F)c[n+]([O-])c43)nc2C)cc1 (single isomer, unassigned) [ID No. 14, (S*)-3-(3-Chloro-2-fluoro-6-(1H-tetrazol-1-yl)phenyl)-7-(4-(4-((methoxycarbonyl)amino)phenyl)-3-methyl-1H-pyrazol-1-yl)-6,7-dihydro-5H-cyclopenta[b]pyridine 1-oxide]
